Measurements: patent publication US10517952B2, “Nucleophile-triggered degradable materials and methods of making and using the same” (GEORGIA TECH RESEARCH CORPORATION, priority 2014, dated 2019)

What was measured:
Assay type in all cases: physicochemical
[1] = Calculation of hydrogel mesh size from equilibrium swelling data; conditions: equilibrium-swollen gels
Experimental: Using the calculated molecular weight between crosslinks, Mc, and the method previously described by Canal and Peppas, the hydrogel mesh size was calculated. First, the root-mean-square end-to-end distance of the polymer chains in the network, (r0^2)^1/2, was calculated as follows: (r0^2)^1/2=lCn^1/2n^1/2 (Equation S10) where l is the average bond length in the polymer (0.146 nm for PEG) and Cn is the characteristic ratio of the polymer (4.0 for PEG). The average number of bonds between crosslinks, n is calculated using the following equation:
[formula] where Mc is the average molecular weight between crosslinks, calculated as described in the previous section, and Mr is the molecular weight of the repeating unit for the PEG macromer (44 g/mol). Finally, the mesh size, ξ, is calculated using the following relationship: ξ=v2,s^−1/3(r0^2)^1/2 (Equation S12) where v2, is the partial volume of polymer in the equilibrium swollen hydrogel, and is calculated using the experimentally determined equilibrium weight swelling ratios.

[2] = Equilibrium swelling, gel fraction and Mc (Flory-Rehner) of PEG-OND hydrogels; conditions: for Mc (apparent molecular weight between elastic crosslinks): calculated with the Flory-Rehner equation from swelling results; for Gel Fraction: mass of dry residue post-swelling/input mass of OND and 4-PEG-SH; for Equilibrium Swelling Ratio: mass post-swelling/mass pre-swelling, deionized water, 4° C., 24 hours, n = 3 gels
Experimental: The swelling of the PEG-OND hydrogels in deionized water was measured at 4° C. to prevent significant fragmentation during the experiment. […] An independent experiment measuring soluble fraction thiol content yielded results complementing those obtained gravimetrically (Table S3, and related discussion below). With the knowledge that small molecules can readily permeate swollen PEG-OND hydrogels (see below), detecting and modifying residual thiols in gels prepared from divalent linkers 7a and 8 by swelling in the presence of a fluorogenic OND derivative was attempted (FIG. 15, and related discussion below).
200 μL gels were prepared in pH 7.4 100 mM phosphate buffered saline containing 7% DMSO with 3.5 wt % 4-PEG-SH and the corresponding bis-, tris-, and tetra-ONDs to provide a 1:1 thiol to electrophile ratio, and allowed to cure for 20 minutes at room temperature. The mass of the gels after curing was recorded (Meq) before suspending in 5.5 mL of water. The hydrogels were stored at 4° C. during swelling to prevent significant degradation of the network during the experiment. The increase in mass of the gels was monitored periodically by decanting and blotting the gel gently with a kimwipe to remove excess water before weighing. After 24 hours swelling, when swelling had stabilized, the mass of the gel was recorded (Meq). The equilibrium mass swelling ratio was then determined using the following relationship:
After weighing equilibrium-swelled gels to determine equilibrium mass swelling ratio, the gels were freeze-dried and the residual mass was weighed (Mres). It is expected that buffer salts present in the sample when it was formed were removed by the multiple changes of swelling solvent (pure water). The mass of the remaining residue was compared to the input mass (Min) of 4-PEG-SH macromer and OND-based linker. The ratio of the residual mass and the input mass provides the fraction of material by mass incorporated into the hydrogel network (gel fraction), as shown in the following equation: […]
The apparent molecular weight between elastically-productive crosslinks (Mc) was determined from equilibrium swelling data, collected as described in section VII.1 and applying a modified form of the Flory-Rehner equation for networks formed under dilute conditions:
[formula] where Mn is the number average molecular weight for the polymeric macromer (10,000 g/mol), v is the specific volume of the polymer ([…] for PEG) V1 is the molar volume of solvent used for swelling ([…] for water), χ is the polymer-interaction parameter (0.43 for PEG-H2O and assumed constant for the described experiments). V2, and V2, are the volume fraction of polymer in the equilibrium swollen gel and the relaxed gel after curing, respectively, and are calculated as follows:
[formula] where qw is the weight swelling ratio after equilibrium swelling, qF is the weight swelling ratio after curing, ρp is the density of the polymer (1.12 g/cm^3 for PEG), ρwater=ρcure solvent is the density of swelling solvent and solvent during gel formation (1.00 g/cm^3 for water). The weight swelling ratios qw and qF are determined from data gathered in equilibrium swelling experiments using the following relationships:
[formula] where ms is the mass of the gel after equilibrium swelling, mc is the mass of the gel after curing, and md is the mass of the dried gel, or input mass of polymer and crosslinkers.
Using the formulae above, masses of hydrogel samples recorded after equilibrium swelling, curing, and drying were applied to estimate the apparent molecular weight between crosslinks, which are summarized in Table 1 of the main text. The experimentally observed Mc values for gels formed using divalent OND linkers was lower than theoretical ideal value Mc,ideal. This can be explained by the fact that the Mc,ideal values calculated for these gels (entries 1-5 of Table S1) are greater than the entanglement molecular weight for polyethylene glycol (˜4,400 g/mol). […]

[3] = Erosion of swollen hydrogels (BODIPY erosion probe, time-lapse photography); conditions: 37° C., erosion probe
From the text: Degradation behavior of PEG-OND hydrogels under swelling conditions was investigated by labeling 3% of the 4-PEG-SH thiols with a BODIPY fluorophore via maleimide coupling before gelation. Gels prepared from this material are expected to have slightly lower crosslink densities and to degrade sooner when compared to gels formed without the erosion probe (FIG. 19). However, the probe-labeled macromer allowed convenient monitoring and comparison of erosion behavior under conditions relevant for biological applications. An increase in absorbance (504 nm) of the swelling buffer was observed as pieces containing the labeled PEG-thiol components were detached from the gel by rDA fragmentation (FIG. 2). […] Using combinations of linkers, it was possible to produce hydrogels with release profiles tuned between those of gels prepared from a single linker (FIG. 2C).
The 3.76 wt % solution of BODIPY-labeled 4-PEG-SH prepared above was used to form hydrogels using a method identical to unlabeled gels. Briefly, BODIPY-labeled 4-PEG-SH was combined with DMSO stocks of multivalent ONDs at equimolar concentration of thiol and electrophile. […] The absorbance of the supernatant at 504 nm was measured immediately to obtain a baseline measurement (t=0 hours), and the samples were placed into a 37° C. incubator. The absorbance of the swelling supernatant was monitored periodically by removal of 1 mL of buffer into a cuvette and measuring absorbance of the sample at 504 nm. […] This process was repeated for each sample until gel degradation was complete and the absorbance at 504 nm stabilized (100% dye released). In order to estimate the fraction of dye released from the non-degradable gel formed with bi s-EONB 8, a mock endpoint sample consisting of BODIPY-labeled 4-PEG-SH diluted to 3.5 wt % was prepared, and the absorbance at 504 nm was measured. […] The absorbance values collected over the course of the experiment were divided by the absorbance value measured after gel disintegration to obtain fractional dye release versus time. […]
The time at which the glass bead reached the bottom of the tube was recorded. […]

[4] = Oscillatory rheology of PEG-OND hydrogels
Experimental: Oscillatory rheology was used to assess the viscoelastic properties of selected PEG-OND hydrogels. […] The truncated cone was then brought in contact with the bis-EONB/4-PEG-SH mixture before setting of the gel by positioning the tool at the measuring position. The sample was inspected for spillovers and trimmed as required. A preliminary preshearing step consisting of 30 seconds at 0.1% strain and ω=0.01 rad/s was performed to ensure good contact with the gel sample. The elastic (storage) and viscous (loss) moduli, G′ and G″, respectively, were then measured as a function of time for a constant strain of 1% and an angular frequency of 1 rad/sec. The ability to store energy is described by G′, while the amount of energy dissipated is related with G″. It was observed that the sample experienced a rapid transformation from an initial state in which G′ was not much larger than G″ to a state in which G′ was clearly predominant, as shown in FIG. 5; this is consistent with gelation. The observed transformation happened in the first few minutes after preparation, even when the hydrogel continued to rigidify for up to 2-3 hours.
The linear regime of this sample was determined by performing an oscillatory strain sweep at 37° C. The frequency sweep shown in the main text was thus performed in the linear region.
[…] In both experiments, G′>>G″.

[5] = Gelation of 4-PEG-SH with OND linkers, gelation time by inversion test
Experimental: PEG-OND hydrogels were prepared by mixing tetravalent thiol-terminated PEG (4-PEG-SH, Mw˜2,500 Da for each arm) at 3.5 weight percent and multivalent OND linkers at equimolar concentration of thiol and electrophile in phosphate buffer containing 7% DMSO by volume (FIG. 42). The reactions were mixed briefly and the gel was allowed to cure at temperature or 37° C. Gelation time was recorded as the point at which the sample no longer flowed upon inversion of the reaction vessel.
Trial gelations were performed by premixing a solution of linker 7a with four-armed thiol-terminated poly(ethylene glycol) (4-PEG-SH. Mn=10,000) in neutral water containing 17% DMSO by volume. The overall concentration of PEG macromer was varied from 0.4 wt % to 8.3 wt % while maintaining an equimolar ratio of thiol to electrophile. Under these conditions, no gels formed on standing at room temperature for five minutes.
Based on empirical observations made in these trials, subsequent gels were prepared at room temperature from 3.5 wt % 4-PEG-SH solutions in phosphate buffers containing 7% DMSO at equimolar concentrations of thiol and OND electrophile. Mixtures were mixed briefly with a vortex mixer, and the reaction vial was periodically tilted or inverted. Gelation time was recorded when the sample no longer flowed and was self-supporting. […] Gelation time at 37° C. was determined by pre-warming 4-PEG-SH macromer and OND stock solutions in a 37° C. water bath. Gel components were combined and mixed briefly by pipetting, and the sample was held in the water bath. Gelation time was determined by the inversion test, as described above.
The labeled protein solutions prepared as described in the previous section were diluted three-fold with pH 7.4 100 mM phosphate buffer and used to dissolve the 4-PEG-SH macromer at 3.76 wt %. This solution was used in an identical manner as pure 4-PEG-SH solution for the purpose of forming PEG-OND hydrogels (FIG. 45). All samples formed self-supporting hydrogels within 1 min after mixing, as determined by the inversion test.

Row | Calculated mesh size [1] [nm] | Mc (apparent molecular weight between elastic crosslinks) [2] [g/mol] | Gel Fraction [2] | Equilibrium Swelling Ratio [2] | Gel stability under swelling conditions compared with gels from divalent ONDs [3] | Gel stability ([4]; gel formed at pH 8.0, 4° C.) | Time to revert to the liquid state (crossover of G′ and G″) ([4]; gel formed at pH 8.0, room temperature) [min] | Storage modulus G′ versus loss modulus G″ ([4]; pH 8.0, 4° C., strain and frequency sweeps) | Gelation time ([5]; buffer pH 8.0, room temperature) [min] | Gel formation ([5]; pH 6.5-7.4) | Gel formation ([5]; pH 7.4) | Compound
1 | 13.7 ± 1.3 | 3846 ± 102 | 0.98 ± 0.08 | 1.54 ± 0.07 | more stable gels |  |  |  |  |  |  | COC(=O)C1=C(C(=O)OC)C2(CNC(=O)CC(O)(CC(=O)NCC34C=CC(O3)C(C(=O)OC)=C4C(=O)OC)C(=O)NCC34C=CC(O3)C(C(=O)OC)=C4C(=O)OC)C=CC1O2 (stereo not shown) [Linker 11, Tetramethyl 1,1′-(((2-(2-(((2,3-bis(methoxycarbonyl)-7-oxabicyclo[2.2.1]hepta-2,5-dien-1-yl)methyl)amino)-2-oxoethyl)-2-hydroxysuccinyl)bis(azanediyl))bis (methylene))bis(7′-oxabicyclo[2.2.1]hepta-2,5-diene-2,3-dicarboxylate)]
2 | 13.3 ± 0.9 | 3740 ± 95 | 0.96 ± 0.05 | 1.44 ± 0.08 | more stable gels |  |  |  |  |  |  | COC(=O)C1=C(C(=O)OC)C2(CNC(=O)CCOCC(COCCC(=O)NCC34C=CC(O3)C(C(=O)OC)=C4C(=O)OC)(COCCC(=O)NCC34C=CC(O3)C(C(=O)OC)=C4C(=O)OC)COCCC(=O)NCC34C=CC(O3)C(C(=O)OC)=C4C(=O)OC)C=CC1O2 (stereo not shown) [Linker 12, Tetramethyl 1,1′-(8,8-bis((3-(((2,3-bis(methoxycarbonyl)-7-oxabicyclo[2.2.1]hepta-2,5-dien-1-yl)methyl)amino)-3-oxopropoxy)methyl)-3,13-dioxo-6,10-dioxa-2,14-diazapentadecane-1,15-diyl)bis(7-oxabicyclo[2.2.1]hepta-2,5-diene-2,3-dicarboxylate)]
3 |  |  |  |  |  | fairly stable | ≤ 30 | G′>>G″ | ≤ 1.5 | formed only viscous solutions | did not form self-supporting gels | COC(=O)C1=C(C(=O)OC)C2(CNC(=O)CCCC(=O)NCC34C=CC(C)(O3)C(C(=O)OC)=C4C(=O)OC)C=CC1(C)O2 [Linker 7c, Tetramethyl 4,4′-((glutaroylbis(azanediyl))bis(methylene))bis(1-methyl-7-oxabicy-clo[2.2.1]hepta-2,5-diene-2,3-dicarboxylate)]
